Experimental data from ChEMBL document CHEMBL4251684, “Trichodermides A-E: New Peptaibols Isolated from the Australian Termite Nest-Derived Fungus Trichoderma virens CMB-TN16” (J Nat Prod, 2018).
pIC50: −log10 of the molar value. The source made the active and inactive calls. The calls are words filed in the database; no cut-off is given here.

Tests used:
Pichia kudriavzevii = experiment: Antimicrobial activity against Candida krusei ATCC 6258 after 24 hrs by spectrophotometric method; type: functional, organism-based
NCI-H460 = experiment: Cytotoxicity against human NCI-H460 cells assessed as inhibition of cell growth after 48 hrs by MTT assay; type: cell-based; conditions: NCI-H460, 48 h
Escherichia coli = experiment: Antimicrobial activity against Escherichia coli ATCC 11775 after 24 hrs by spectrophotometric method; type: functional, organism-based; conditions: DSM 30083 = JCM 1649 = ATCC 11775
Bacillus subtilis = experiment: Antimicrobial activity against Bacillus subtilis ATCC 6051 after 24 hrs by spectrophotometric method; type: functional, organism-based
SW-620 = experiment: Cytotoxicity against human SW620 cells assessed as inhibition of cell growth after 48 hrs by MTT assay; type: cell-based; conditions: SW-620, 48 h
Candida parapsilosis = experiment: Antimicrobial activity against Candida parapsilosis ATCC 22019 after 24 hrs by spectrophotometric method; type: functional, organism-based
Candida albicans = experiment: Antimicrobial activity against Candida albicans ATCC 10231 after 24 hrs by spectrophotometric method; type: functional, organism-based
Pseudomonas aeruginosa = experiment: Antimicrobial activity against Pseudomonas aeruginosa ATCC 10145 after 24 hrs by spectrophotometric method; type: functional, organism-based
Staphylococcus aureus = experiment: Antimicrobial activity against Staphylococcus aureus ATCC 25923 after 24 hrs by spectrophotometric method; type: functional, organism-based

| Structure (SMILES) | Activity (Pichia kudriavzevii) | pIC50 (NCI-H460) | Activity (Escherichia coli) | Activity (Bacillus subtilis) | pIC50 (SW-620) | Activity (Candida parapsilosis) | Activity (Candida albicans) | Activity (Pseudomonas aeruginosa) | Activity (Staphylococcus aureus) |
| --- | --- | --- | --- | --- | --- | --- | --- | --- | --- |
| CC[C@H](C)[C@H](NC(=O)[C@@H]1CCCN1C(=O)C(C)(C)NC(=O)[C@@H](NC(=O)[C@@H](NC(=O)[C@H](CCC(N)=O)NC(=O)[C@@](C)(CC)NC(C)=O)C(C)C)C(C)C)C(=O)N[C@@H](CC(C)C)C(=O)NC(C)(C)C(=O)N1CCC[C@H]1C(=O)N[C@H](CO)C(C)C | inactive | < 4.52 | inactive | inactive | 4.56 | inactive | inactive | inactive | inactive |
| CC[C@@H](C)[C@H](NC(=O)[C@H](CCC(N)=O)NC(=O)[C@@](C)(CC)NC(C)=O)C(=O)N[C@H](C(=O)NC(C)(C)C(=O)N1CCC[C@H]1C(=O)N[C@H](C(=O)N[C@@H](CC(C)C)C(=O)NC(C)(C)C(=O)N1CCC[C@H]1C(=O)N[C@H](CO)C(C)C)[C@@H](C)CC)C(C)C | inactive | 4.71 | inactive | inactive | 4.72 | inactive | inactive | inactive | inactive |
| CC[C@@H](C)[C@H](NC(=O)[C@H](CCC(N)=O)NC(=O)C(C)(C)NC(C)=O)C(=O)N[C@H](C(=O)NC(C)(C)C(=O)N1CCC[C@H]1C(=O)N[C@H](C(=O)N[C@@H](CC(C)C)C(=O)NC(C)(C)C(=O)N1CCC[C@H]1C(=O)N[C@H](CO)C(C)C)[C@@H](C)CC)C(C)C | inactive | < 4.52 | inactive | inactive | < 4.52 | inactive | inactive | inactive | inactive |
| CC[C@@H](C)[C@H](NC(=O)[C@H](CCC(N)=O)NC(=O)C(C)(C)NC(C)=O)C(=O)N[C@H](C(=O)NC(C)(C)C(=O)N1CCC[C@H]1C(=O)N[C@H](C(=O)N[C@@H](CC(C)C)C(=O)NC(C)(C)C(=O)N1CCC[C@H]1C(=O)N[C@H](CO)CC(C)C)[C@@H](C)CC)C(C)C | inactive | < 4.52 | inactive | inactive | < 4.52 | inactive | inactive | inactive | inactive |
| CC[C@@H](C)[C@H](NC(=O)[C@H](CCC(N)=O)NC(=O)[C@@](C)(CC)NC(C)=O)C(=O)N[C@H](C(=O)NC(C)(C)C(=O)N1CCC[C@H]1C(=O)N[C@H](C(=O)N[C@@H](CC(C)C)C(=O)NC(C)(C)C(=O)N1CCC[C@H]1C(=O)N[C@H](CO)CC(C)C)[C@@H](C)CC)C(C)C | inactive | 4.96 | inactive | inactive | 4.89 | inactive | inactive | inactive | inactive |
